How the values were obtained:
[1] = tested on: EBV subset ME/CFS patients; experiment: Energy Index Point Score (EIPS) of six EBV subset ME/CFS patients treated with valacyclovir for ≥12 months; format: in vivo, human; settings: for EIPS final: valacyclovir ≥12 months
Protocol: As depicted in Table 1, the Energy Index (EI) point score (Copyright, Lerner A M and Deeter R G, 1999), is a simple and reliable metric that can be used to easily evaluate the functional capacity of the CFS patient at each patient-physician visit. The EI is measured on a scale of 1-10. Validation of the EI was done using two methods: 1.) 20 CFS patients and 22 healthy adults, matched for sex, age, place, and time; EI, CFS=3.6; EI, healthy adults=9.9, p=<0.0001; and 2.) 55 CFS patients evaluated at the same time by the EI and fatigue severity score, correlation 0.67, p=0.0066. Improvement to disappearance of CFS symptoms correlates with an increasing EI.
The validated energy index point score generally can be calculated for each CFS patient every 3 months at physician visits. A CFS patient has an EI≤5. A CFS patient with an […] is bedridden; a CFS diagnosis is no longer present at an EI>5. The EI effect size is 0.25, a medium effect size is 0.5. A large effect size is >0.8.
6 ME/CFS patients were identified as Group A EBV subset (five patients), and one patient (group B) had co-infection with Borrelia burgdorferi. […] A ME/CFS treatment decision tree that developed from the systematic review of the 142 ME/CFS patients is provided as FIG. 1.
Demographics. ME/CFS patients (Table 2) the six ME/CFS patients (5 women) were selected from 142 ME/CFS of the 2001-2007 systematic review. They were 37-59 years old. Serum samples were taken at intervals Mar. 5, 2002-Nov. 14, 2003. There were 7 to 10 sera from each patient. Five of the 6 ME/CFS patients were Group A (no co-infections), and one patient had co-infection with Borrelia burgdorferi (patient no. 2). Five of the 6 patients were HCMV IgG serum antibody negative. Initial EIPS values were 3.5-5.0, meaning that patients could be out of bed only 3 to 4 hours a day, and required daily naps in bed to complete each day. One ME/CFS patient was able to struggle to complete a sedentary working day (Table 2, patient no. 6). […] They struggled at baseline to maintain their sedentary working day, required a daytime nap, and could no longer do any exercise without marked syncope and worsening fatigue. One year later the final EIPS values were 7-8, for the 5 group A ME/CFS patients, meaning that patients could now live normal lives. The single group B ME/CFS patient's final EIPS value increased from a baseline of 3.5 to 5, but this […] still met international criteria diagnosis of ME/CFS. The EIPS is a validated (FSS-9 item scale with high degree of internal consistency measured by Cronbach's alpha) is a Functional Activity Appraisal: energy Index Score Healthcare worker Appraisal.

group A ME/CFS patients = experiment: Follow-up of 106 group A ME/CFS patients 2001-2007 under subset directed antiviral treatment; format: in vivo, human; settings: 79 of 106 group A patients, valacyclovir (EBV subset) or valganciclovir (HCMV, HHV6 subsets), 2001-2007, p<0.0001
Source text: A ME/CFS diagnostic panel was created utilizing initial Fukuda/Carruthers criteria and a systematic review of 142 ME/CFS patients. Two groups of ME/CFS patients were found. Group A patients had elevated serum IgG antibody titers to the herpes viruses Epstein-Barr virus (EBV), cytomegalovirus (HCMV) and Human Herpes virus 6 (HHV6) in single or multiple virus infection, but no other co-infections. Group B patients had similar elevated herpes virus antibody titers, plus serologic evidence of co-infections, tick-borne (“Borrelia burgdorferi”, “Anaplasma phagocytophilia”, “Babesia microti”); “Mycoplasma pneumoniae”; or adult rheumatoid fever. One hundred and six group A ME/CFS patients were followed from 2001-2007, and treated with subset directed valacyclovir EBV subset or valganciclovir (HCMV, HHV6 subsets). The data included over 7000 patient visits and 35,000 data entries.

EBV thymidine kinase = EBV thymidine kinase (Epstein-Barr virus, UniProt P03177); settings: after gastrointestinal absorption; cited from earlier work
[2] = tested on: early herpes virus proteins; settings: cited from earlier work
HCMV DNA polymerases = HCMV DNA polymerases (Human cytomegalovirus, UniProt P08546); settings: cited from earlier work
HV6 DNA polymerases = HV6 DNA polymerases (Human herpesvirus 6A, UniProt P28857); settings: cited from earlier work
HV6 DNA polymerases, sequence (P28857 whole entry): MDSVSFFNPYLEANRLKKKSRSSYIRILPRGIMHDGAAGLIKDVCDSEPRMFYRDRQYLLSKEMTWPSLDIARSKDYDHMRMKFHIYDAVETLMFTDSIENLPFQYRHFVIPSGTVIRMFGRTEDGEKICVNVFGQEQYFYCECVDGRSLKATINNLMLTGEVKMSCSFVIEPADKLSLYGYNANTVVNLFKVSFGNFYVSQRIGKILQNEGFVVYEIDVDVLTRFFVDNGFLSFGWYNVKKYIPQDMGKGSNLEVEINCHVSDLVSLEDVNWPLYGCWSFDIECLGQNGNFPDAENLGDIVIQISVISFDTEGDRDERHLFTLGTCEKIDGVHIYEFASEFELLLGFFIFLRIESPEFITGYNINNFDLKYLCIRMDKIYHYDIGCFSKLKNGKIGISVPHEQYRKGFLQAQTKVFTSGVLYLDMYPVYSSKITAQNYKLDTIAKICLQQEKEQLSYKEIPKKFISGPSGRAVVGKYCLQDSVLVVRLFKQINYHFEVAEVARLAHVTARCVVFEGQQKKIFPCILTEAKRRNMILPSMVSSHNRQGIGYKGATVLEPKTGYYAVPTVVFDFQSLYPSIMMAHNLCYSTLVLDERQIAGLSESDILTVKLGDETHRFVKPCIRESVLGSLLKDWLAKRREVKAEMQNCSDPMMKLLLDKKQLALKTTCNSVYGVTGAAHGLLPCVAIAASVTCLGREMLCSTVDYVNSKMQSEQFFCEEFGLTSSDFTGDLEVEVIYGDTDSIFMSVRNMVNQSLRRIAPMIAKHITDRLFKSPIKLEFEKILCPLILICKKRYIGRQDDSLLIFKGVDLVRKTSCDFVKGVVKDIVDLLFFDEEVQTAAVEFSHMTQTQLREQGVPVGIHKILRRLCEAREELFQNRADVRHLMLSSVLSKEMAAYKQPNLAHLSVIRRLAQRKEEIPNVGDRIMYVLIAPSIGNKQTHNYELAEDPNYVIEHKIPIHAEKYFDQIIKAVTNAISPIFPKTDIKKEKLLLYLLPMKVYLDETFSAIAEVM

EBV thymidine kinase, sequence (P03177 whole entry): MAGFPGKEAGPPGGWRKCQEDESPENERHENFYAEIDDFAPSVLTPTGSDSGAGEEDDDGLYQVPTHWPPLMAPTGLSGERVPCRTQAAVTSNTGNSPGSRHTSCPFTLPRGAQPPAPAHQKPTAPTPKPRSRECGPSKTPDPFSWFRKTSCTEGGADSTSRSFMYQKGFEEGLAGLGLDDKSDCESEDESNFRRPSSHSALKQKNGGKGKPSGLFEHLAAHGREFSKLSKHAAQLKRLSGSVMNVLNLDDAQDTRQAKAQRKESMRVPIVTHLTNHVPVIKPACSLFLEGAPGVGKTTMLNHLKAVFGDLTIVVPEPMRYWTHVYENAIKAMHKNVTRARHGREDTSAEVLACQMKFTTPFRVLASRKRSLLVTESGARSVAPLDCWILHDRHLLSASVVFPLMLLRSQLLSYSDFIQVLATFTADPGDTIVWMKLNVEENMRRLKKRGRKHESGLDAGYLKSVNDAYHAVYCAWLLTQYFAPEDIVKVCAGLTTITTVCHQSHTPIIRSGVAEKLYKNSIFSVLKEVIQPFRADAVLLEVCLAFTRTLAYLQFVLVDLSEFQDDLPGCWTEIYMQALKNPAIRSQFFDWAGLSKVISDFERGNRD
HCMV DNA polymerases, sequence (P08546 whole entry): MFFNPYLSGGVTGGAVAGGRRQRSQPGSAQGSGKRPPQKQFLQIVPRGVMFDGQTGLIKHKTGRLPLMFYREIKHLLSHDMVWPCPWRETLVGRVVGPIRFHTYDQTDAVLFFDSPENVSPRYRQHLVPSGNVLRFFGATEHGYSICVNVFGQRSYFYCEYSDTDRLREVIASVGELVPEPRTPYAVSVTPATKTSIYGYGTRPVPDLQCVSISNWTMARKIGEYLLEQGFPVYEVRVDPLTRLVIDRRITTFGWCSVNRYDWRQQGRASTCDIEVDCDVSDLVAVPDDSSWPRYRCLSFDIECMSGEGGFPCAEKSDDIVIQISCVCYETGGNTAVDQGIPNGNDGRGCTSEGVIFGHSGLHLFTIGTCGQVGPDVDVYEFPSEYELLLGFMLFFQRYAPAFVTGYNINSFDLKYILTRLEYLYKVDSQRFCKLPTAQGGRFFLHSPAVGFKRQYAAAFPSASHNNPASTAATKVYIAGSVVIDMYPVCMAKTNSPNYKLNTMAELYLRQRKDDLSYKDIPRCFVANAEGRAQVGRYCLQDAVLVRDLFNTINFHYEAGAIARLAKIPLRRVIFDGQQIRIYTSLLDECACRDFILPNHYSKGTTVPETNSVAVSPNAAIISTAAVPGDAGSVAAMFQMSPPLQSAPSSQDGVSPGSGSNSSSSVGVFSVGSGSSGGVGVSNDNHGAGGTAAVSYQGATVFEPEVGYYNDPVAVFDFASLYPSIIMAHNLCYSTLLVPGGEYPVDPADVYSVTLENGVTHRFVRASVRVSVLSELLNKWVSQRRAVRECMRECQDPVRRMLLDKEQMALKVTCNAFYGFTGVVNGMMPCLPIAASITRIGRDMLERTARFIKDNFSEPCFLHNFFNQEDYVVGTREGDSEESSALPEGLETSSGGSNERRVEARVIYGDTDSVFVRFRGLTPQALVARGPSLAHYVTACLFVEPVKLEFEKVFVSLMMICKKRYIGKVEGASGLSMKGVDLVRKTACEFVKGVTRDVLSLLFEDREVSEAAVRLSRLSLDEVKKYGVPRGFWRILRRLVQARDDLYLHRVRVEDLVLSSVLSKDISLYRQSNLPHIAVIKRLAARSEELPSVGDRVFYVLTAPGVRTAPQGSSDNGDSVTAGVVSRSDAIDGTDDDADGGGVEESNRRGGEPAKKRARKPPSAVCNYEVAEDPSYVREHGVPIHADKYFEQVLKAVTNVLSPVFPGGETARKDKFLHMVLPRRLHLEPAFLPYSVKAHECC

Row | Compound | EIPS final ([1]; patient 1, Group A, no co-infection, EIPS 5 baseline) | EIPS final ([1]; patient 2, Group B, co-infection Lyme disease, EIPS 3.5 baseline) | EIPS final ([1]; patient 3, Group A, no co-infection, EIPS 5 baseline) | EIPS final ([1]; patient 4, Group A, no co-infection, EIPS 4 baseline) | EIPS final ([1]; patient 6, Group A, no co-infections, EIPS 6 baseline) | final EIPS value ([1]; single group B ME/CFS patient, baseline 3.5, still met criteria of ME/CFS) | final EIPS values ([1]; the 5 group A ME/CFS patients, one year later, initial EIPS 3.5-5.0 (one patient 6)) | group A patients recovered to resume normal life (group A ME/CFS patients) [%] | greater affinity for EBV thymidine kinase than for the host cellular enzyme (EBV thymidine kinase) [×] | inhibition of early herpes virus proteins [2] | inhibition of HCMV DNA polymerases (HCMV DNA polymerases) | inhibition of HV6 DNA polymerases (HV6 DNA polymerases)
1 | CC(C)[C@H](N)C(=O)OCCOCn1cnc2c(=O)[nH]c(N)nc21 [valacyclovir] | EIPS 8 | EIPS 5 | EIPS 8 | EIPS 7 | EIPS 7 | 5 | 7-8 | 74.5 | 200 | do not inhibit | – | –
2 | CC(C)[C@H](N)C(=O)OCC(CO)OCn1cnc2c(=O)nc(N)[nH]c21 (some centres unmarked) [valganciclovir] | – | – | – | – | – | – | – | 74.5 | – | do not inhibit | inhibits | inhibits

From US10215755B2, “Method of diagnosing and treating Epstein Barr virus-based myalgic encephalomyelitis chronic fatigue syndrome patients” (CFS, LLC, priority 2012, dated 2019)
